One data set deals with T1, human TLR7 (Homo sapiens, UniProt Q9NYK1).
T1 construct: host or cells: HEK293 (HEK-Blue hTLR7)
T1 sequence (Q9NYK1 27-1049): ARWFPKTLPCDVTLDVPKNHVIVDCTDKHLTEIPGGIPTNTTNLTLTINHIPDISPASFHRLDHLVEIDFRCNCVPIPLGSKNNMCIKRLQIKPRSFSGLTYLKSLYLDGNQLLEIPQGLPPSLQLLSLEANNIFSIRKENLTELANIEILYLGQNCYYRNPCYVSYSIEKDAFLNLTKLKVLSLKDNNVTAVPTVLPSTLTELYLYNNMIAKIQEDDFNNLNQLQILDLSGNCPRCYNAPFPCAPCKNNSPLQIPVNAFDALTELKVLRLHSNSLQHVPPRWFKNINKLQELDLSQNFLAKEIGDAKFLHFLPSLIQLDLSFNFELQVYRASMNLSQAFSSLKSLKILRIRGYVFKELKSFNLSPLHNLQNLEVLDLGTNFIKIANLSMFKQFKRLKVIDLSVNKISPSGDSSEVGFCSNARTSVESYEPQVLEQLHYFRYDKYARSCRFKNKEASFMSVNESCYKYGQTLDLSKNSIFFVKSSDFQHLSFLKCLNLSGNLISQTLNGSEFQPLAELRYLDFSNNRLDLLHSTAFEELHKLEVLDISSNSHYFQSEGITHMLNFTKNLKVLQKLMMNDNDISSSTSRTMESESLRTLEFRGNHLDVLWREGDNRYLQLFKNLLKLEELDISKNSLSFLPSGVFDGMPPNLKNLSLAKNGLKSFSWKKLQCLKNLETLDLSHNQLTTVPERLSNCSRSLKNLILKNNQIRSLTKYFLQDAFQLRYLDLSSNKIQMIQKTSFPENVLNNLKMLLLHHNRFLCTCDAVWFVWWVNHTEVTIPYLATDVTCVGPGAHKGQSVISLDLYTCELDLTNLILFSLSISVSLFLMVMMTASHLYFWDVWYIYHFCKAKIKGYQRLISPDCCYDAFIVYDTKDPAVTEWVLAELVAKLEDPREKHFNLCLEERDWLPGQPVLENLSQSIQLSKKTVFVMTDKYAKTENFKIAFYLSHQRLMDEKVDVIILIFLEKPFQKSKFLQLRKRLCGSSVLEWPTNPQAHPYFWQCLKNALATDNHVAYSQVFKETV
Nature of the data set: HEK293-Blue-hTLR-7 cells assay. Type of data set: cell-based. Particulars: HEK293-Blue-hTLR7 cells, R848 stimulation, 20 hrs, SEAP reporter; read-out: HEK/hTLR7 IC50.

In another data set the target is T2, hERG channel (Homo sapiens, UniProt Q12809).
T2 construct: expressed in transfected cells; host or cells: CHO (Chinese hamster ovary), CHOhERG
Nature of the data set: hERG channel inhibition assay (patch-clamp, CHOhERG cells). Type of data set: cell-based. As to conditions: for IC50 / IC20: CHOhERG cells, whole-cell patch-clamp; for IC20: human, CHO cells stably expressing hERG (CHOhERG); for hERG IC20/TLR7 IC50 / hERG IC20/TLR8 IC50 / hERG IC20/TLR9 IC50: safety ratio. The method in brief: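 Whole-cell voltage-clamp recordings of IKhERG in CHO cells stably expressing human hERG, stimulated at 0.1 Hz. Compound applied at rising concentrations, each held 3–10 min to reach steady state; current amplitude and kinetics compared with pre-drug control set as 100%.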
Background: hERG is a cardiac potassium channel; its block is linked to QT prolongation.

Here are results for four molecules from patent US20220340597A1, “HEXAHYDRO-1H-PYRAZINO[1,2-A]PYRAZINE COMPOUNDS FOR THE TREATMENT OF AUTOIMMUNE DISEASE” (Hoffmann-La Roche Inc., priority 2019, published 2022).

T2 sequence (Q12809 whole entry): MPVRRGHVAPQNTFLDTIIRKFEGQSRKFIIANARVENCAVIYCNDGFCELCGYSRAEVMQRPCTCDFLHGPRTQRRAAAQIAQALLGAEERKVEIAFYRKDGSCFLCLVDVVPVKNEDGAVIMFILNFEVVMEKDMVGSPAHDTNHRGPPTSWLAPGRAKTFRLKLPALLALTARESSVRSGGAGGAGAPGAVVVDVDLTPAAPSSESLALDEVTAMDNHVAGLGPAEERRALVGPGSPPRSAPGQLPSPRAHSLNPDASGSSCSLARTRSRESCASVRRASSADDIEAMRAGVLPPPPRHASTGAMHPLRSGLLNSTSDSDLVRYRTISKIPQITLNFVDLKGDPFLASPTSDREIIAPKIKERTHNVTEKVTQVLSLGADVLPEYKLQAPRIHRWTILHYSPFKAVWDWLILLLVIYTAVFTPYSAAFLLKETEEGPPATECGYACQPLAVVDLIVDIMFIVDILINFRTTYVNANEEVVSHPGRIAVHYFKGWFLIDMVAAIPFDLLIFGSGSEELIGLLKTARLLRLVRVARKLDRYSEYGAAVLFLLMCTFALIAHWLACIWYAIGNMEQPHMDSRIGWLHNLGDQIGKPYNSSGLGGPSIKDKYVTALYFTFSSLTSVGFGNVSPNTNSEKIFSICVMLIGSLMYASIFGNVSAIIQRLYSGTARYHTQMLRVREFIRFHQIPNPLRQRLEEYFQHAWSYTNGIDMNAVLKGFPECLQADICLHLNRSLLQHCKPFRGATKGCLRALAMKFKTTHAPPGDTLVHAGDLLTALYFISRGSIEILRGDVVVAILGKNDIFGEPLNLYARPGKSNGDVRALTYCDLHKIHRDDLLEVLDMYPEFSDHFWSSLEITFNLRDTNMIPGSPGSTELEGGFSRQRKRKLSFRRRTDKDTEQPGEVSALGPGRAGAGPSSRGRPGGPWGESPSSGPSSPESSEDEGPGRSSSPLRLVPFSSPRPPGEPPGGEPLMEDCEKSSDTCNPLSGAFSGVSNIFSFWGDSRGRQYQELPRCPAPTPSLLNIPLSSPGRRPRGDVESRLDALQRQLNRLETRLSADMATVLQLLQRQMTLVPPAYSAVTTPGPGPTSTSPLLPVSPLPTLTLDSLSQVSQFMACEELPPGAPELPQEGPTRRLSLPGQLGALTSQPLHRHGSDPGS

With `CO[C@@H]1CN(c2ccnc(N3CCN4[C@@H](C3)CN(c3ccc(C#N)c5ncccc35)C[C@H]4C)n2)C[C@H]1N` [Example 37, 5-[(4R,9aR)-8-[4-[(3R,4R)-3-amino-4-methoxy-pyrrolidin-1-yl]pyrimidin-2-yl]-4-methyl-3,4,6,7,9,9a-hexahydro-1H-pyrazino[1,2-a]pyrazin-2-yl]quinoline-8-carbonitrile], the IC50 on human TLR7 is 0.021 µM. Moreover, on hERG channel, the IC50 is above 10 µM, the 20% effect level (IC20) was put at 4.5 µM, the “hERG IC20/TLR7 IC50” value is 214 and the “hERG IC20/TLR8 IC50” value is recorded as 173. Further, the “hERG IC20/TLR9 IC50” value at hERG channel is recorded as 73.

Consider `C[C@@H]1CN(c2ccc(C#N)c3ncccc23)C[C@@H]2CN(c3ccnc(N4CC(N)C4)c3)CCN21` [Example 41, 5-[(4R,9aS)-8-[2-(3-aminoazetidin-1-yl)-4-pyridyl]-4-methyl-3,4,6,7,9,9a-hexahydro-1H-pyrazino[1,2-a]pyrazin-2-yl]quinoline-8-carbonitrile], for which the IC50 on human TLR7 was 0.035 µM. Also, on hERG channel, the IC50 is above 20 µM, the 20% effect level (IC20) was put at 9.64 µM, the “hERG IC20/TLR7 IC50” value came to 275 and the “hERG IC20/TLR8 IC50” value was determined as 1377. Besides, on hERG channel, the “hERG IC20/TLR9 IC50” value is 214.

Regarding `C[C@@H]1CN(c2ccc(C#N)c3ncccc23)C[C@@H]2CN(Cc3ccc4c(c3)CNCC4)CCN21` [Example 5, 5-[(4R,9aS)-4-methyl-8-(1,2,3,4-tetrahydroisoquinolin-7-ylmethyl)-3,4,6,7,9,9a-hexahydro-1H-pyrazino[1,2-a]pyrazin-2-yl]quinoline-8-carbonitrile], at human TLR7, the IC50 is 0.017 µM. In addition, at hERG channel, the IC50 was above 20 µM, the IC20 is above 10 µM, the “hERG IC20/TLR7 IC50” value is reported as above 588 and the “hERG IC20/TLR8 IC50” value is on record as above 833. For the same molecule, on hERG channel, the “hERG IC20/TLR9 IC50” value is reported as above 313.

As to `C[C@@H]1CN(c2ccc(C#N)c3ncccc23)C[C@@H]2CN(c3nccc(N4CCNCC4)n3)CCN21` [Example 30, 5-[(4R,9aR)-4-methyl-8-(4-piperazin-1-ylpyrimidin-2-yl)-3,4,6,7,9,9a-hexahydro-1H-pyrazino[1,2-a]pyrazin-2-yl]quinoline-8-carbonitrile], on human TLR7, the IC50 was 0.016 µM. Further, at hERG channel, the IC50 is above 10 µM, the IC20 amounted to 4.53 µM, the “hERG IC20/TLR7 IC50” value is on record as 283 and the “hERG IC20/TLR8 IC50” value turned out to be 216. Further, at hERG channel, the “hERG IC20/TLR9 IC50” value worked out at 63.

For orientation: IC20 means the concentration needed for an effect of 20%.
